The target in one data set is T1, Tubulin (Sus scrofa, UniProt P02550+P02554).
T1 construct: Tubulin is purified from pig brains according to published methods; from tissue; host or cells: pig brain
The data set can be described thus: Assessment of the inhibition of tubulin polymerization (turbidimetry at 350 nm). To be noted: tubulin purified from pig brains, 10 μM; concentration inhibiting the rate of polymerization by 50%. Format: biochemical. How it is done: Tubulin is purified from pig brains according to published methods (Shelanski et al., 1973, Proc. Natl. Acad. Sci. USA, 70, 765-768, Weingarten et al., 1975, Proc. Natl. Acad. Sci. USA, 72, 1858-1862). Briefly, the brains are ground and centrifuged in an extraction buffer. The tubulin, present in the extract supernatant, is subjected to two successive cycles of polymerization at 37° C. and depolymerization at 4° C., before being separated from the MAPS (microtubule associated proteins) by chromatography on a phosphocellulose P11 column (Whatman). The tubulin thus isolated is more than 95% pure. It is stored in a buffer known as RB/2 30% glycerol, the composition of which is 50 mM MES-NaOH [2-(N-morpholino)ethanesulfonic acid], pH 6.8; 0.25 mM MgCl2; 0.5 mM EGTA; 30% (v/v) glycerol, 0.2 mM GTP (guanosine 5′-triphosphate).
The polymerization of the tubulin into microtubules is monitored by turbidimetry as follows: the tubulin is adjusted to a concentration of 10 μM (1 mg/ml) in the RB/2 30% glycerol buffer, to which are added 1 mM GTP and 6 mM MgCl2. The polymerization is initiated by increasing the temperature from 6° C. to 37° C. in a cuvette with 1 cm optical path length, placed in a Uvikon 931 spectrophotometer (Kontron) equipped with a thermostatically-regulated cuvette holder. The increase in turbidity of the solution is followed at 350 nm.
The products are dissolved at 10 mM in DMSO and added at variable concentrations (0.5 to 10 μM) to the tubulin solution before polymerization. The IC50 value is defined as the concentration of product which inhibits the rate of polymerization by 50%. A product with an IC50 value of less than or equal to […] is considered to be very active.

The test system of the next data set is HCT116 cells. The data set can be described thus: Inhibition of proliferation of the human colon tumor line HCT116 ([14C]thymidine incorporation). Format: cell-based. The settings on record: HCT-116, 48 hours at 37° C. How it is done: Assay for Determining the Inhibition of Proliferation of the Human Colon Tumor Line HCT116
The proliferation of HCT116 cells is evaluated by measuring the incorporation of [^14C]thymidine in the following way. The HCT116 cells (from ATCC) are cultured in a DMEM medium (Gibco) which contains 10% foetal calf serum and antibiotics (1% penicillin, 1% streptomycin). To carry out the proliferation assay, the cells are seeded into 96-well Cytostar microplates (Amersham), at a rate of 5000 cells per well. The [^14C]thymidine (0.1 μCi/well) and the products to be evaluated are then added. Variable concentrations of products up to 10 μM are used; the DMSO (solvent used to dissolve the products) should not exceed 0.5% in the medium. 48 hours after incubation at 37° C., the radioactivity incorporated into the cells is measured by counting the plates in a Tri-Lux counter (Wallac). The IC50 value is defined as the concentration of product which reduces the radioactivity by 50% compared with an untreated control. A product with an IC50 value of less than 10 μM is considered to be cytotoxic.

T1 sequence (P02550 whole entry): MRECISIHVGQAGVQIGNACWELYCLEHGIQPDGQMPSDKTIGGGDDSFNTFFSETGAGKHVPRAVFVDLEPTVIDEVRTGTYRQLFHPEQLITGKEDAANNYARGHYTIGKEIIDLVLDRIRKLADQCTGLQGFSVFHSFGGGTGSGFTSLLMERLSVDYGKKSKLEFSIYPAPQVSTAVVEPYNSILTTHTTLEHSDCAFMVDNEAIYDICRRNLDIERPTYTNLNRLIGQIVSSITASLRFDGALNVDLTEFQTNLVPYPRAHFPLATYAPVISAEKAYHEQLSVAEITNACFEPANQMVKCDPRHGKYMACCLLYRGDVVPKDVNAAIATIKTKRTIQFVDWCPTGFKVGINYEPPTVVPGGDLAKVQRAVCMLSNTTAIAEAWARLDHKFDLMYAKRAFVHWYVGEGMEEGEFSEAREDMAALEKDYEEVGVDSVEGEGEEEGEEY
T1 sequence (P02554 whole entry): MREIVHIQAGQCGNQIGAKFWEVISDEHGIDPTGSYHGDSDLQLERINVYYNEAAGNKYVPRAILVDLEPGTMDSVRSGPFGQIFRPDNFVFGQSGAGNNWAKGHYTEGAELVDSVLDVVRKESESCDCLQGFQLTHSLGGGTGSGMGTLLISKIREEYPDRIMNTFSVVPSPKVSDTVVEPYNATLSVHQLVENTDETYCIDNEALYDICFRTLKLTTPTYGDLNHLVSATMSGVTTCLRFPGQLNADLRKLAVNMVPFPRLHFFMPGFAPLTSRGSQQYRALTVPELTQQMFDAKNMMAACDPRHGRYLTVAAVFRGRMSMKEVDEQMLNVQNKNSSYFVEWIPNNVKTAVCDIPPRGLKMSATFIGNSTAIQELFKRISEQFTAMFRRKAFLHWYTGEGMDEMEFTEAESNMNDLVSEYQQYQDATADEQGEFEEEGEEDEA

In turn, `NC(=O)c1cccc(N2CCN(C(=O)c3cc4ccccc4n3-c3ccccc3)CC2)c1` [Example 7, [4-(3-carboxamidophenyl)piperazin-1-yl](1-phenyl-1H-indol-2-yl)methanone] gave an IC50 against Tubulin of 900 nM.

`COc1cc(OC)cc(N2CCN(C(=O)c3cc4cc(OC)ccc4n3-c3ccccc3)CC2)c1` [Example 9, [4-(3,5-dimethoxyphenyl)piperazin-1-yl](5-methoxy-1-phenyl-1H-indol-2-yl)methanone] came in with a melting point of 165 °C. This molecule also returned an IC50 against Tubulin of 1200 nM.

Molecule `COc1cc(OC)cc(N2CCN(C(=O)c3cc4n(c3-c3ccccc3)CSC4)CC2)c1` [Example 14, [4-(3,5-dimethoxyphenyl)piperazin-1-yl](5-phenyl-1H-pyrrolo-[1,2-c]thiazol-6-yl)methanone] returned a melting point of 98 °C.

As for `COc1cc(OC)cc(N2CCN(C(=O)c3cc4ccccc4n3-c3ccccc3)CC2)c1` [Example 8, [4-(3,5-dimethoxyphenyl)piperazin-1-yl](1-phenyl-1H-indol-2-yl)methanone], the melting point worked out at 146 °C. The IC50 at Tubulin was 1100 nM.

Consider `O=C(c1c(-c2ccccc2)sc2ccccc12)N1CCN(c2cccc(Cl)c2)CC1` [Example 4, [4-(3-chlorophenyl)piperazin-1-yl](2-phenylbenzo[b]thiophen-3-yl)methanone], for which the figures for the IC50 against Tubulin and in the data set with HCT116 cells were 1100 nM and 990 nM, respectively.

On to `O=C(c1cc2ccccc2n1-c1ccccc1)N1CCN(c2cccc(Cl)c2)CC1` [Example 1, [4-(3-chlorophenyl)piperazin-1-yl](1-phenyl-1H-indol-2-yl)methanone], for which the IC50 against Tubulin stood at 800 nM; in the data set on HCT116 cells, 76 nM.

With `O=C(C1=Nc2ccc(Cl)cc2C1c1ccccc1)N1CCN(c2cccc(Cl)c2)CC1` (stereo not drawn) [Example 11, [4-(3-chlorophenyl)piperazin-1-yl](5-chloro-3-phenyl-1H-indol-2-yl)methanone], the melting point came to 188 °C. Half-maximal inhibition on Tubulin (IC50) required 800 nM.

Regarding `COc1cc(OC)cc(N2CCN(C(=O)c3c4ccccc4nn3-c3ccccc3)CC2)c1` [Example 3], the IC50 on Tubulin is 500 nM; in the data set with HCT116 cells, 9.8 nM.

`COc1ccc2c(c1)cc(C(=O)N1CCN(c3cccc(Cl)c3)CC1)n2-c1ccccc1` [Example 10, [4-(3-chlorophenyl)piperazin-1-yl](5-methoxy-1-phenyl-1H-indol-2-yl)methanone] registered a melting point of 125 °C. At Tubulin, the IC50 came out at 2600 nM.

For `O=C(c1c2ccccc2nn1-c1ccccc1)N1CCN(c2cccc(Cl)c2)CC1` [Example 2], the figures for the IC50 against Tubulin and in the data set with HCT116 cells were 800 nM and 6 nM, respectively.

Source of the values: US20050020593A1, “Aryl-heteroaromatic compounds, compositions comprising them and use” (Aventis Pharma, priority 2003, published 2005).
